Measurements: PMC9820303, “^αN-Acetyl β-Endorphin Is an Endogenous Ligand of σ1Rs That Regulates Mu-Opioid Receptor Signaling by Exchanging G Proteins for σ2Rs in σ1R Oligomers” (International Journal of Molecular Sciences, 2022)
Where a name gives a salt, the structure may show the parent alone.

How the values were obtained:
[1] = tested on: CD1 mice (wild-type and σ1R−/−); test: Supraspinal analgesia, warm water (52 °C) tail-flick test; assay type: in vivo, mouse; settings: for analgesia of the substance in σ1R−/− mice compared with wild-type: icv: morphine 3 nmol, β-End 1–31 0.5 nmol, DAMGO 0.1 nmol, DPDPE 10 nmol, WIN55,212-2 15 nmol, 8 mice per strain
Experimental: Upper panel: the withdrawal thresholds of the contralateral and ipsilateral paws were measured before (indicated as 0) and up to 14 days after surgery. […] Middle panel: 0.3 and 3 nmol of ^αN-acetyl β-End 1–31 were administered icv 7 days after surgery, and the nociceptive threshold was evaluated at the indicated postinjection intervals (in minutes). For every time interval studied in min or days, * indicates a significant difference from the group that received saline instead of ^αN-acetyl β-End 1–31; ϕ significant difference from the effect of 3 nmol ^αN-acetyl β-End 1–31. […] All data are presented as the mean ± SD of six mice. ANOVA followed by the Holm–Sidak multiple comparisons test, p < 0.05, 1-β > 0.80. […] Upper panel: wild-type mice were injected icv with saline, ^αN-acetyl β-End 1–31 (1 nmol/mouse) or the combination of the σ1R agonist PPCC (3 nmol/mouse) plus ^αN-acetyl β-End 1–31 20 min before morphine and β-End 1–31. Analgesia was evaluated by the warm water (52 °C) tail-flick test at the interval postinjection corresponding to their peak effect, 30 min. Lower panel: σ1R^−/− mice received 1 nmol ^αN-acetyl β-End 1–31, 20 min before morphine and β-End 1–31 and analgesia was evaluated as described above. Eight mice were used per strain and treatment. * Significant difference with respect to the group treated with morphine or β-End 1–31 alone. ANOVA followed by the Holm–Sidak multiple comparisons test, p < 0.05, 1-β > 0.80.
Figure 3 Effect of physiological β-End 1–31 derivatives on morphine and β-End 1–31 analgesia. […] (A) The mice were icv-injected with 25 nmol of β-End 1–26, β-End 1–27 and ^αN-acetylated derivatives 20 min before icv 0.5 nmol β-End 1–31. Analgesia was determined at the indicated postinjection intervals. (B) CD1 wild-type and σ1R^−/− mice were administered C terminal peptide sequences 27–31, 28–31 and 30–31 of β-End 1–31 through an icv injection 20 min before 0.5 nmol of the whole β-End 1–31 and morphine (10 nmols) were injected icv. […] (C) A series of exogenous σ1R ligands (3 nmol) were icv-injected 20 min before 0.5 nmol β-End 1–31 was administered via icv in wild-type mice. The σ1R antagonist S1RA was also icv-injected before β-End 1–31 was administered icv in σ1R^−/− mice. (D) The effects of several doses of S1RA on morphine analgesia were studied in wild-type and σ1R^−/− mice. […] ANOVA followed by the Holm–Sidak multiple comparisons test, p < 0.05, 1-β > 0.80.
(A) The effect of σ1R deletion on opioid- and cannabinoid-induced analgesia. Analgesic compounds were icv-injected into wild-type and σ1R^−/− mice, and analgesia was evaluated 30 min after morphine (3 nmol) and β-End 1–31 (0.5 nmol), 15 min after DAMGO (0.1 nmol) and DPDPE (10 nmol) and 10 min after WIN55,212-2 (15 nmol). The bars are the mean ± SD of eight mice per strain and treatment. * Significant difference with respect to the effect of the analgesic substance in the wild-type group. ANOVA followed by the Holm–Sidak multiple comparisons test, p < 0.05, 1-β > 0.80. (B) Coprecipitation of G proteins with MORs. Solubilized mouse brain cortical membranes enriched in synaptosomes (SBM) from CD1 wild-type (WT) and σ1R^−/− mice were solubilized with sonication in the presence of 1% NP-40. Non-soluble debris was eliminated, and the samples were then incubated overnight at 4 °C with affinity-purified biotinylated IgGs that were raised against extracellular regions of the MOR. Protein complexes that were immunoprecipitated with streptavidin agarose were extensively washed and then resolved by SDS-PAGE.

[2] = target: σ1R-σ2R (Mus musculus, UniProt O55242); test: In vitro σ1R-σ2R association of recombinant proteins (HaloLink-σ2R, Western blot); assay type: biochemical, murine; set-up: The coding region of the full-length murine σ1R (AF004927); GST (N, cleaved yes); made in house; host or cells: E. coli BL21 (KRX); settings: increasing concentrations; 30 min RT; vs control without ligand
Experimental: (§1) Figure 7 Effect of β-End 1–31, ^αN-acetyl β-End 1–31 and their N-terminal derivatives on σ1R-σ2R, σ1R-NR1 C1 and σ1R-BiP associations. Amino acid sequence of β-End 1–31 showing derivatives 1–26 and 1–27. (A) HaloLink-attached σ2Rs were incubated for 30 min at RT in the presence of σ1Rs (100 nM) in 300 μL of 50 mM Tris-HCl (pH 7.4), 0.2% CHAPS, and 2.5 mM CaCl2. After removing the unbound σ1R proteins, the effects of increasing the peptide concentrations on σ1R-σ2R associations were studied. At the end of the incubation, protein complexes bound to HaloLink-σ2R were obtained by centrifugation, washed three times, solubilized in 2× Laemmli buffer containing β-mercaptoethanol, resolved by SDS-PAGE, and analyzed by Western blotting (for more details, see Section 4). This protocol was also used to assess the effect of ligands on (B) σ1R-NR1 C1 and (C) σ1R-BiP associations. Data were compared to that of the control, which was obtained in the absence of ligands. (A–C) Data are the mean ± SD, n = 3. (D) The β-End 1–31 structural models were predicted by Novafold (DNASTAR Lasergene protein v.17, Inc., Madison, WI, USA). Ribbon model: The 3D structure, charge distribution and hydrophobicity map of β-End 1–31 are shown. Positive charges are shown in red and negative charges in blue. Polar surfaces are shown in yellow, and nonpolar surfaces are shown in orange. Linear model: the opioid (1–5) and flexible region (8–11) sequences are shown in green and orange, respectively, and the amphiphilic helix (15–25) is shown in pink.
(§2) The recombinant σ1R (100 nM) was incubated either with Haloprotein (negative control) or together with the immobilized σ2R, NR1 C0-C1-C2 or BiP proteins in 300 µL of a buffer containing 50 mM Tris-HCl (pH 7.4) and 0.2% CHAPS in the presence of 2.5 mM CaCl2 for 30 min at RT. After removal of the unbound σ1R, the agarose-attached complexes were incubated for 30 min with rotation at RT in the presence of increasing concentrations of the ligands in a final reaction volume of 300 µL [50 mM Tris-HCl (pH 7.4), 2.5 mM CaCl2 and 0.2% CHAPS]. Ligands were usually dissolved in aqueous solutions; however, when an organic solvent such as DMSO was required to incorporate, e.g., pregnenolone sulfate, the solvent remained below 1% in the assay buffer. Agarose pellets containing the bound proteins were obtained by centrifugation, washed and resuspended thrice in the presence of 2.5 mM CaCl2, solubilized in 2× Laemmli buffer plus β-mercaptoethanol, and analyzed by Western blotting.
(§3) Because all the assays were performed with recombinant proteins, the immune signals provided a single band of the expected size, which was used for the subsequent densitometry analysis. Accordingly, no other regions of the blots provided information and were routinely excluded from the analysis.
Figure S7. Effect of σ1R agonist/antagonist ligands on σ1R-σ2R heterodimers. (A-C) Agarose (Θ)- attached σ2Rs captured recombinant σ1Rs. After removing unbound σ1R proteins, the Θ-σ2R.σ1R complexes were incubated with a ﬁxed concentration of a selected L1 ligand (indicated in brackets) in the absence and presence of increasing concentrations of competing σ1R ligands as indicated. The σ1Rs that remained attached to the Θ-σ2Rs were evaluated by Western blotting. * Signiﬁcant differences with respect to the control group that was incubated without L1 ligands. ANOVA followed by the Holm-Sidak multiple comparisons test, p < 0.05. For details, see Methods and Figure 6A. Representative blots are […]
Figure S8. Effect of the physiological and nonphysiological sequences of β-End 1-31 and classical σ1R ligands on BiP-σ1R, σ2R-σ1R and NR1 C1-σ1R associations . Agarose-BiP was loaded with σ1Rs, and after the unbound σ1Rs were removed, the agarose-BiP-σ1R complexes were incubated in the absence (control) and presence of increasing concentrations of (A) β-End 1-31 C-terminal physiological derivatives and (B) classical σ1R ligands. C) Agarose-σ2R loaded with σ1Rs was incubated in the […]

[3] = target: T1, σ1R-NR1 C1 (Mus musculus, UniProt O55242); test: In vitro σ1R-NR1 C1 association of recombinant proteins (Western blot); assay type: biochemical, murine; settings: increasing concentrations; 30 min RT; vs control without ligand
T1 construct: The coding region of the full-length murine σ1R (AF004927); GST (N, cleaved yes); made in house; host or cells: E. coli BL21 (KRX)
Experimental: as §1, §2, §3
Figure S8. Effect of the physiological and nonphysiological sequences of β-End 1-31 and classical σ1R ligands on BiP-σ1R, σ2R-σ1R and NR1 C1-σ1R associations . […]
D) Agarose-NR1 C1 loaded with […]
σ1Rs were incubated in the absence (control) and with nonphysiological derivatives of β-End 1-31. A-D) The σ1Rs that remained attached to the agarose complexes were evaluated by Western blotting. The […]
(1 picture or pasted object on this page, not shown here)
Figure S9. Effect of σ1R agonist/antagonist ligands on σ1R-NR1 C1 associations. Θ-Agarose-NR1 C1 was loaded with recombinant σ1Rs. After unbound σ1R proteins were removed, the complexes were incubated with (A) 1 nM β-End 1-31, (B) αN-acetyl β-End 1-31, (C-D) β-End 28-31 in the absence (black columns) and presence of (A) 10 nM or (B-D) increasing concentrations of competing σ1R ligands as indicated. The σ1Rs that remained attached to the Θ-σ2Rs were evaluated by Western blotting. The […]
Prog is progesterone; PregSulfate is pregnenolone sulfate; Nac is […]

T1 sequence (O55242 whole entry): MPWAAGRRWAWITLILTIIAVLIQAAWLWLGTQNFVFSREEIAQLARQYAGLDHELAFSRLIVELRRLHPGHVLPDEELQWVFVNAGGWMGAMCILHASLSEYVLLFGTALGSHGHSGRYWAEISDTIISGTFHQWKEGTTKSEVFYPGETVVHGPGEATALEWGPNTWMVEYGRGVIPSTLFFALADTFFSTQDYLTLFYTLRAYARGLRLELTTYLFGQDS
Chain of σ1R-σ2R (O55242 whole entry): as above

Row | Compound | analgesia of the substance in σ1R−/− mice compared with wild-type [1] | effect on σ1R-σ2R association [2] | effect on σ1R-NR1 C1 association [3] | also measured
1 | Cc1c(C(=O)c2cccc3ccccc23)c2cccc3c2n1[C@H](CN1CCOCC1)CO3 [WIN55,212–2] | did not significantly change | – | – | –
2 | CN1CC[C@]23c4c5ccc(O)c4O[C@H]2[C@@H](O)C=C[C@H]3[C@H]1C5 [morphine, morphine sulfate] | increased analgesic response | – | – | –
3 | ([D-Ala2, N-MePhe4, Gly-ol]-enkephalin [DAMGO] | augmented | – | – | –
4 | ([D-Pen2,D-Pen5]enkephalin) [DPDPE] | did not significantly change | – | – | –
5 | GGFL [leu-enkephalin 2–5 metabolite] | – | disrupted this association | – | –
6 | GGFM [met-enkephalin 2–5 aminopeptidase product] | – | promoted the sigma receptor heterodimer | – | –
7 | YGGFL [leu-enkephalin, leucine-enkephalin 1–5] | – | disrupted this association | dissociated σ1R-NR1 C1 complexes | –
8 | YGGFM [met-enkephalin, methionine-enkephalin, β-End N-terminal derivative 1–5] | – | promoted the sigma receptor heterodimer | enhancement | –
9 | ^αN-acetyl leu-enkephalin: chimeric ^αN-acetylated leu-enkephalin | – | protective | – | –
10 | β-End 1–4: fragment 1–4 of β-End 1–31 (YGGF; Beta-endorphin; UniProt P01189 237-240, looked up, fragment) | – | – | enhancement | –
11 | β-End 1–16: nonphysiological fragment of β-End 1–31 (YGGFMTSEKSQTPLVT; Beta-endorphin; UniProt P01189 237-252, looked up, fragment) | – | – | – | effect on β-End 1–31 analgesia, nonphysiological fragments ([1]; 1 nmol icv 20 min before 0.5 nmol β-End 1–31 icv, 6 mice): practically did not alter β-End 1–31 analgesia
12 | β-End 2–31: β-End 1–31 without Y1 (GGFMTSEKSQTPLVTLFKNAIIKNAYKKGE; Beta-endorphin; UniProt P01189 238-267, looked up, fragment) | – | diminished σ1R-σ2R associations | promoting the σ1R-NR1 C1 association | –
